The subject of assay [1] is cotton aphid (Aphis gossypii). Description: Aphis gossypii test. Type of assay: in vivo. The following applies: 500 ppm, applied individually. From the text: The kill rates determined a.re entered into Colby's formula.
Assay [2] deals with green peach aphid (Myzus persicae). Description: Myzus persicae test (run-off application). It counts as in vivo. The following applies: 500 ppm, applied individually. An excerpt: Myzus persicae Test (Run-Off Application)
The test system is the same in assay [3]. Description: Myzus persicae test (spray on infested cabbage leaves). Type of assay: in vivo. The conditions noted are these: 100 g/ha, applied individually.
Assay [4] relates to larvae of the mustard beetle (Phaedon cochleariae). Description: Phaedon cochleariae larvae test. The conditions noted are these: for pest or weed control at 100 g/ha: Phaedon cochleariae, 120 h, read-out: Kill in % after 5d.
The subject of assay [5] is larvae of the armyworm (Spodoptera frugiperda). Description: Spodoptera frugiperda larvae test. Type of assay: in vivo. The following applies: applied individually; for Kill in % after 2d: 100 g/ha. As for the experimental part: Spodoptera frugiperda Larvae Test
Cabbage leaves (Brassica oleracea) are treated by being sprayed with wits the preparation of active compound of the desired concentration and are populated with larvae of the armyworm (Spodoptera frugiperda) while the leaves are still moist.

Regarding `Cn1c(=O)c2sc3c(=O)n(C)c(=O)c3sc2c1=O` [2,6-DIMETHYL-1H,5H-[1,4]DITHIINO[2,3-C:5,6-C′]DIPYRROLE-1,3,5,7(2H,6H)-TETRONE], the “Kill in % after 1d” value in assay [1] (after 1 d) and in assay [2] was 0% each time. The “Kill in % after 3 d” value in assay [1] (after 3 d) is on record as 0%.
Consider `CO/C=C(/C(=O)OC)c1ccccc1Oc1cc(Oc2ccccc2C#N)ncn1` [azoxystrobin], for which the “Kill in % after 1d” value in assay [3] is 0%. Besides, the “Kill in % after 5d” value in assay [4] (100 g/ha, applied individually) was 0%.
In the case of `O=C(Nc1ccccc1-c1ccc(Cl)cc1)c1cccnc1Cl` [boscalid], the pest or weed control at 100 g/ha in assay [4] stood at 0%.
Still for that read-out and setting: the same measure for `CCC1(C(=O)N[C@H](C)c2ccc(Cl)cc2)C(C)C1(Cl)Cl` (some centres unmarked) [carpropamid]: 0%; for `CSC1=N[C@@](C)(c2ccccc2)C(=O)N1Nc1ccccc1` [fenamidone]: 0%.
For `N#Cc1c[nH]cc1-c1cccc2c1OC(F)(F)O2` [fludioxonil], the pest or weed control at 100 g/ha in assay [4] came to 0%.
For `O=C(NCc1ncc(C(F)(F)F)cc1Cl)c1c(Cl)cccc1Cl` [fluopicolide], the “Kill in % after 5d” value in assay [4] (100 g/ha, applied individually) worked out at 0%.
On to `O=C(NCCc1ncc(C(F)(F)F)cc1Cl)c1ccccc1C(F)(F)F` [fluopyram], for which the “Kill in % after 2d” value in assay [4] (100 g/ha, applied individually, after 2 d) came out at 0%; in assay [1] (after 2 d), 0%.
On to `CO/N=C(/C1=NOCCO1)c1ccccc1Oc1ncnc(Oc2ccccc2Cl)c1F` [fluoxastrobin], for which the pest or weed control at 100 g/ha in assay [4] amounted to 0%.
Regarding `O=c1c2cc(F)ccc2nc(-n2cncn2)n1-c1ccc(Cl)cc1Cl` [fluquinconazole], the pest or weed control at 100 g/ha in assay [4] worked out at 0%.
As to `CC(C)Oc1cccc(NC(=O)c2ccccc2C(F)(F)F)c1` [flutolanil], the “Kill in % after 5d” value in assay [3] was found to be 0%. Further, the pest or weed control at 100 g/ha in assay [4] was 0%.
Take `C=CCOC(Cn1ccnc1)c1ccc(Cl)cc1Cl` (centres unmarked) [imazalil]: the pest or weed control at 100 g/ha in assay [4] stood at 0%. Further, the “Kill in % after 2d” value in assay [5] turned out to be 0%.
Consider `CC(C)C1CCC(Cc2ccc(Cl)cc2)C1(O)Cn1cncn1` (centres unmarked) [ipconazole], for which the “Kill in % after 1d” value in assay [3] was 0%. Moreover, the pest or weed control at 100 g/ha in assay [4] came out at 0%.
Turning to `N#Cc1ccccc1NC(=O)c1snc(Cl)c1Cl` [isotianil], in assay [4] (100 g/ha, applied individually), the “Kill in % after 5d” value amounted to 0%.
For `COCC(=O)N(c1c(C)cccc1C)[C@H](C)C(=O)OC` [mefenoxam], the “Kill in % after 1d” value in assay [3] was found to be 0%. Besides, in assay [4] (100 g/ha, applied individually), the “Kill in % after 5d” value was 0%.
In the case of `COCC(=O)N(c1c(C)cccc1C)C(C)C(=O)OC` (centres unmarked) [metalaxyl], the pest or weed control at 100 g/ha in assay [4] was 0%.
Regarding `CNC(=O)/C(=N/OC)c1ccccc1Oc1ccccc1` [metominostrobin], the “Kill in % after 1d” value in assay [3] is listed as 0%.
Consider `O=C(Nc1ccccc1)N(Cc1ccc(Cl)cc1)C1CCCC1` [pencycuron], for which the pest or weed control at 100 g/ha in assay [4] was 0%.
Consider `Cc1nn(C)c(F)c1C(=O)Nc1ccccc1C(C)CC(C)C` (centres unmarked) [penflufen], for which, in assay [4] (100 g/ha, applied individually), the “Kill in % after 5d” value was 0%. In assay [5], the “Kill in % after 2d” value worked out at 0%.
`OC(Cc1ccccc1Cl)(Cn1nc[nH]c1=S)C1(Cl)CC1` (centres unmarked) [prothioconazole]: in assay [4], the pest or weed control at 100 g/ha came out at 0%.
For `Cn1cc(C(=O)Nc2ccccc2C2CC2C2CC2)c(C(F)F)n1` (centres unmarked) [sedaxane], in assay [4] (100 g/ha, applied individually), the “Kill in % after 5d” value came out at 0%.
As to `CC(C)(C)C(O)(CCc1ccc(Cl)cc1)Cn1cncn1` (centres unmarked) [tebuconazole], in assay [3], the “Kill in % after 5d” value was 0%. In addition, the pest or weed control at 100 g/ha in assay [4] turned out to be 0%.
Take `CC(C)(C)C(O)C(Oc1ccc(Cl)cc1)n1cncn1` (centres unmarked) [triadimenol]: the pest or weed control at 100 g/ha in assay [4] was found to be 0%.
The same measure, in the same setting: the figure for `O=[n+]1[n-]c(-n2ccnc2)nc2ccc(Cl)cc21` [triazoxide] is 0%.
Same read-out and setting: the same measure for `CON=C(C(=O)OC)c1ccccc1CON=C(C)c1cccc(C(F)(F)F)c1` [trifloxystrobin]: 0%.
Consider fosetyl-aluminium, for which the “Kill in % after 6d” value in assay [5] (500 g/ha, after 6 d) amounted to 0%.
Turning to mancozeb, the “Kill in % after 1d” value in assay [3] is 0%. Moreover, in assay [4] (100 g/ha, applied individually), the “Kill in % after 5d” value was 0%.

The values above are taken from patent US9700049B2, “Anthranilamides in combination with fungicides” (BAYER INTELLECTUAL PROPERTY GMBH, priority 2010, dated 2017).
